Data taken from patent US5217950A, “Nisin compositions for use as enhanced, broad range bactericides” (Applied Microbiology, Inc., priority 1992, dated 1993).
Where no end group is shown, it is not given here.

Legend:
E. coli = test: bactericidal activity: percent bacterial survival after treatment, suspension in buffer; assay type: cell-based, Escherichia coli; conditions: for Percentage E. coli Survival at 2 hours: 20 mM Tris pH 8.0, 37° C
Procedure: (§1) All tests in the following examples were performed at 37° C. The efficacy of the enhanced broad range bactericides was determined by assaying bactericidal activity as measured by the percent bacterial survival after treatment with the bactericide. Generally, after incubation of a 10^7 cell per ml suspension of target species with the novel bactericide for specified lengths of time, bacteria were collected by centrifugation for 2 minutes. The bacterial pellet was washed free of the bactericide with a rescue buffer, termed herein Phage buffer (50 mM Tris-HCl buffer pH 7.8, 1 mM MgSO4, 4 mM CaCl2, 0.1M Nacl, and 0.1% gelatin), resuspended and serially diluted into Phage buffer, and 100 μl of the suspended bacteria were spread on nutrient agar plates. Surviving bacteria were determined by scoring colony forming units (CFU) after incubation for 24-48 hours at 37° C.
The effects of the bactericide were measured as a function of percentage bacteria survival after 2 hours.
Incubations were performed in 20 mM Tris-HCl, […] at 37° C.

Listeria monocytogenes [1] = test: bactericidal activity in milk; assay type: cell-based
Procedure: (§2) All tests in the following examples were performed at 37° C. The efficacy of the enhanced broad range bactericides was determined by assaying bactericidal activity as measured by the percent bacterial survival after treatment with the bactericide. Generally, after incubation of a 10^7 cell per ml suspension of target species with the novel bactericide for specified lengths of time, bacteria were collected by centrifugation for 2 minutes. The bacterial pellet was washed free of the bactericide with a rescue buffer, termed herein Phage buffer (50 mM Tris-HCl buffer pH 7.8, 1 mM MgSO4, 4 mM CaCl2, 0.1M Nacl, and 0.1% gelatin), resuspended and serially diluted into Phage buffer, and 100 μl of the suspended bacteria were spread on nutrient agar plates. Surviving bacteria were determined by scoring colony forming units (CFU) after incubation for 24-48 hours at 37° C. An effective bactericide according to this invention is one which allows less than 0.1% of the initial viable count of the bacteria to survive.
An example of where the application of nisin is limited by its available activity is illustrated by the data in Table 15B.
(§3) Incubations were in milk at 37° C.

S. typhimurium = test: bactericidal activity: percent bacterial survival after treatment, suspension in buffer; assay type: cell-based, Salmonella typhimurium
Procedure: as §1
The control (Test #1) is identical to the control of Example 1 (Table 1).

K. pneumoniae = test: as above; assay type: cell-based, Klebsiella pneumoniae; conditions: 20 mM Tris pH 8.0, 37° C
Procedure: as §1
The effect was measured as a function of percentage bacterial survival after 2 hours.

[2] = test system: S. typhimurium on chicken muscle; test: bactericidal activity on inoculated chicken muscle, survival of unadhered cells; assay type: cell-based, Salmonella typhimurium
Procedure: as §2
Incubations were performed in either 50 mM sodium acetate, pH 5.0, or 20 mM Tris, pH 8.0 at 37° C.
Cubes of chicken muscle were cleansed with sodium hypochlorite and povidone iodine prior to use. To inoculate the tissue, the cubes of chicken muscle were dipped into a 10^8 cells/ml suspension of S. typhimurium in 20 mM Tris HCl, pH 8.0. Excess moisture was removed from dipped cubes by tapping. The chicken samples were placed into sufficient buffer containing the nisin composition to cover the tissue and incubated for 2 hours at 37° C. after which the tissue was removed to sufficient Phage buffer to cover the tissue. The bacteria remaining in the test solution were collected by centrifugation, washed with Phage buffer, and combined with bacteria washed from the tissue by Phage buffer. The combined samples (termed "unadhered" cells) were serially diluted and 100 μl aliquots were plated for determination of surviving bacteria.
(§4) Cubes of chicken muscle were cleansed with sodium hypochlorite and povidone iodine prior to use. To inoculate the tissue, the cubes of chicken muscle were dipped into a 10^8 cells/ml suspension of S. typhimurium in 20 mM Tris HCl, pH 8.0. Excess moisture was removed from dipped cubes by tapping. The tissue was placed into sufficient buffer containing the nisin compositions to cover the tissue, and incubated for 2 hours at 37° C. after which the tissue was removed to sufficient Phage buffer to cover the tissue. The bacteria remaining in the test solution were collected by centrifugation, washed with Phage buffer, and combined with bacteria washed from the tissue by Phage buffer. The combined samples (termed "unadhered" cells) were serially diluted and 100 μl aliquots were plated for determination of surviving bacteria.
as §4, with “cleaned” for “cleansed”, “50” for “20”, “sodium acetate buffer,” for “Tris HCl,”, “5.0.” for “8.0.”, “containing” for “containing the”

Staphylococcus aureus = test: bactericidal activity: percent bacterial survival, influence of pH and EDTA; assay type: cell-based
Procedure: as §2
Incubations were performed in 50 mM sodium acetate buffer, pH 5.0 or 20 m
TrisHCl buffer, pH 8.0 at 37° C.

Streptococcus mutans [3] = test: bactericidal activity and kinetics: percent bacterial survival in Tris buffer; assay type: cell-based; conditions: for % Survival: 1.0 mM EDTA, nisin 0, 20 mM Tris-HCl pH 7.3
Procedure: Incubations were performed in 20 mM Tris-HCl, pH 8.0 at 37° C.
The suspensions were incubated for various times ranging from 0.5 to 60 minutes with the bactericides. The bactericidal efficacy of the bactericides was estimated by determining the percent survival of bacteria.
Incubations were performed in 20 mM Tris-HCl, pH 7.3 at 37° C.

Listeria monocytogenes [4] = test: bactericidal activity: percent bacterial survival in Tris buffer; assay type: cell-based; conditions: 20 mM Tris-HCl pH 8.0
Procedure: as §2
(§5) Incubations were performed in 20 mM Tris-HCl, pH at 8.0 at 37° C.

Coryneform bacteria = test: as above; assay type: cell-based, mixed population of axillary Coryneform bacteria; conditions: 20 mM Tris-HCl pH 8.0
Procedure: as §1, §5

Streptococcus agalactiae = test: bactericidal activity in milk; assay type: cell-based
Procedure: as §2
However, the combination of the two agents, 0.1% monolaurin and nisin 0.2 μg/ml, is extremely potent towards S. agalactiae. […] Thus, when the application of nisin is limited by its available activity, a bactericide comprising nisin with a surfactant can be expected to be more useful.
as §3

Streptococcus mutans [5] = test: rapid bactericidal activity in the presence of divalent cation, 10% Fetal Calf Serum; assay type: cell-based; conditions: Nisin 3, no EDTA, CaCl3 0 mM
Procedure: Incubations were performed in 10% Fetal Calf Serum at 37° C.

Triton X-100
Percentage E. coli Survival at 2 hours (E. coli; Triton X-100 1.0%, nisin 0, EDTA 0): 100%
bactericidal activity towards E. coli (E. coli; Triton X-100 1.0%, tests #3 and #4 of Table 4): no significant bactericidal activity

monooleate
% Survival 2 hr (Listeria monocytogenes [1]; Monooleate 0.1%, nisin 0, 37° C): 67%
% Survival 2 hr (Listeria monocytogenes [1]; Monooleate 1.0%, nisin 0, 37° C): 63%
bactericidal activity towards L. monocytogenes (Listeria monocytogenes [1]; monooleate by itself): no bactericidal activity

nisin (ITSISLCTPGCKTGALMGCNMKTATCHCSIHVSK; cysteine pairing not given here; also: lantibiotic, modifications not placed; UniProt P13068 24-57, looked up) [polypeptide bacteriocin with antimicrobial properties produced by strains of Streptococcus lactis]
% Survival at 2 hours (S. typhimurium; nisin 10 μg/ml, EDTA 0, BSA 0, Tris buffer (Table 8)): 51.3%
Percentage S. typhimurium Survival at 3 hours (S. typhimurium; nisin 50 μg/ml, EDTA 0, 20 mM Tris pH 8.0, 37° C): 7.0%
% Survival at 2 hours (S. typhimurium; nisin 100 μg/ml, EDTA 0, BSA 0, Tris buffer (Table 8)): 1.6%
Percentage S. typhimurium Survival at 3 hours (S. typhimurium; nisin 100 μg/ml, EDTA 0, 20 mM Tris pH 8.0, 37° C): 1.6%
% Survival at 2 hours (S. typhimurium; nisin 100 μg/ml, EDTA 0, 20 mM Tris pH 8.0, 37° C (Table 6)): 4%
% Survival at 2 hours (S. typhimurium; nisin 100 μg/ml, EDTA 0, 50 mM sodium acetate pH 5.0, 37° C): 0.6%
Percentage E. coli Survival at 2 hours (E. coli; nisin 30 μg/ml, EDTA 0, Triton X-100 0): 27%
Percentage E. coli Survival at 2 hours (E. coli; nisin 100 μg/ml, EDTA 0, Triton X-100 0): 25%
Percentage E. coli Survival at 2 hours (E. coli; nisin 300 μg/ml, EDTA 0, Triton X-100 0): 8.5%
% Survival at 2 hours (K. pneumoniae; nisin 100 μg/ml, EDTA 0): 50%
% Survival at 2 hours (K. pneumoniae; nisin 300 μg/ml, EDTA 0): 38%
% Survival at 2 hours (unadhered cells) ([2]; nisin 300 μg/ml, EDTA 0, 1% Bovine serum albumin, 20 mM Tris pH 8.0): 0.02%
% Survival at 2 hours (unadhered cells) ([2]; nisin 300 μg/ml, EDTA 0, 20 mM Tris pH 8.0): 7.5%
% Survival at 2 hours (unadhered cells) ([2]; nisin 300 μg/ml, EDTA 0, 50 mM sodium acetate pH 5.0): 0.1%
% Survival 2 hr (Staphylococcus aureus; nisin 3.0 μg/ml, EDTA 0, pH 5.0): 0.6%
% Survival 2 hr (Staphylococcus aureus; nisin 3.0 μg/ml, EDTA 0, pH 8.0): 7.4%
% Survival after 2 hr (Streptococcus mutans [3]; nisin 0.1 μg/ml, EDTA 0, 20 mM Tris-HCl pH 8.0): 4.3%
% Survival after 2 hr (Listeria monocytogenes [4]; nisin 3.0 μ/ml, EDTA 0): 0.71%
% Survival 2 hr (Coryneform bacteria; nisin 3 μg/ml, EDTA 0): 0.22%
% survival at 2 h (Streptococcus agalactiae; nisin 0.02 μg/ml, Monolaurin 0, 37° C): 100%
% survival at 2 h (Streptococcus agalactiae; nisin 0.2 μg/ml, Monolaurin 0, 37° C): 2.2%
% Survival 2 hr (Listeria monocytogenes [1]; nisin 100 μg/ml, Monooleate 0, 37° C): 0.56%
% survival at 1 min. (Streptococcus mutans [5]): 2.9%

O=C([O-])CN(CCN(CC(=O)[O-])CC(=O)O)CC(=O)O.[Na+].[Na+] [EDTA]
% Survival at 2 hours (S. typhimurium; EDTA 1.0 mM, BSA 1.0%, nisin 0, 20 mM Tris pH 8.0): 63%
% Survival at 2 hours (S. typhimurium; EDTA 2.0 mM, nisin 0, 20 mM Tris pH 8.0, 37° C): 8.7%
% Survival at 2 hours (S. typhimurium; EDTA 10 mM, nisin 0, 20 mM Tris pH 8.0, 37° C): 14%
Percentage S. typhimurium Survival at 3 hours (S. typhimurium; EDTA 20 mM, nisin 0, 20 mM Tris pH 8.0, 37° C): 2.5%
% Survival at 2 hours (S. typhimurium; EDTA 50 mM, nisin 0, 50 mM sodium acetate pH 5.0, 37° C): 3.5%
% Survival at 2 hours (S. typhimurium; EDTA 100 mM, nisin 0, 20 mM Tris pH 8.0, 37° C): 45%
% survival at 1 min. (E. coli; EDTA 1.0 mM, nisin 0, 20 mM Tris-HCl pH 7.0): 100%
% Survival at 2 hours (K. pneumoniae; EDTA 20 mM, nisin 0): 22%
% Survival at 2 hours ([2]; EDTA 1.0 mM, BSA 1.0%, nisin 0, pH 8.0): 27%
% Survival at 2 hours (unadhered cells) ([2]; EDTA 10 mM, nisin 0, 20 mM Tris pH 8.0): 5.2%
% Survival at 2 hours (unadhered cells) ([2]; EDTA 10 mM, nisin 0, 50 mM sodium acetate pH 5.0 (Table 7)): 6.4%
% Survival 2 hr (Staphylococcus aureus; EDTA 0.3 mM, nisin 0, pH 8.0): 100%
% Survival 2 hr (Staphylococcus aureus; EDTA 1.0 mM, nisin 0, pH 8.0): 81%
% Survival 2 hr (Staphylococcus aureus; EDTA 3.0 mM, nisin 0, pH 5.0): 100%
% Survival 2 hr (Staphylococcus aureus; EDTA 3.0 mM, nisin 0, pH 8.0): 100%
% Survival 2 hr (Staphylococcus aureus; EDTA 10 mM, nisin 0, pH 8.0): 100%
% Survival 2 hr (Staphylococcus aureus; EDTA 30 mM, nisin 0, pH 8.0): 100%
% Survival (Streptococcus mutans [3]; incubation 3 minutes): 100%
% Survival (Streptococcus mutans [3]; incubation 60 minutes): 100%
% Survival after 2 hr (Listeria monocytogenes [4]; EDTA 1.0 mM, nisin 0): 84%
% Survival 2 hr (Coryneform bacteria; EDTA 0.3 mM, nisin 0): 4.6%
% Survival 2 hr (Coryneform bacteria; EDTA 1.0 mM (last column, after 3.0), nisin 0): 36%
% Survival 2 hr (Coryneform bacteria; EDTA 1.0 mM, nisin 0): 3.6%
% Survival 2 hr (Coryneform bacteria; EDTA 3.0 mM, nisin 0): 8%

CCCCCCCCCCCC(=O)OCC(O)CO (stereo not drawn) [Monolaurin, monolaurin]
% survival at 2 h (Streptococcus agalactiae; Monolaurin 0.01%, nisin 0, 37° C): 100%
% survival at 2 h (Streptococcus agalactiae; Monolaurin 0.1%, nisin 0, 37° C): 4.5%
